According to patent US9345682B2, “Inhibition of STAT3 signal transduction for human cancer therapy” (University of South Florida, priority 1999, dated 2016):

Experiments:
[1] = tested on: Bcl-xL; assay: Bcl-xL expression (RT-PCR, Western blot) in U266 cells; assay type: cell-based, human; set-up: dose or concentration left out as unconfirmed
Protocol: Cells are lysed in a buffer composed of 50 mM Tris-Cl, pH 7.4, 5 mM EDTA, 150 mM NaCl, and 0.5% Triton-X 100 containing 1 mg/ml leupeptin and aprotinin, and 1 mM PMSF. Protein content of the cell lysates is quantified by the Bradford assay (Bio-Rad), and […] total protein is dissolved in Laemmli SDS-PAGE sample buffer prior to separation by 10% SDS-PAGE. Proteins are transferred to PVDF membrane and Western blot analysis is performed by standard techniques with ECL detection (Amersham). The Bcl-xL antibody, clone 124 (Dako), is used at a 1:2000 dilution. The Bcl-xL, antibody, clone S-18 (Santa Cruz Biotechnology), is used at a 1:500 dilution. Blots are quantified by densitometry and expression levels were normalized to b-actin (Sigma).
Total RNA is isolated by lysis in guanidine isothiocyanate followed by centrifugation through a cesium chloride gradient. cDNA is prepared from 200 ng of total RNA in a […] reaction with AMV-RT (Boehringer-Mannheim). […] Tem ml of PCR products are electrophoresed on a 5% acrylamide gel and quantified by phosphorimaging using ImageQuant software (Molecular Dynamics).

[2] = tested on: MOPC tumors; assay: TUNEL assay of MOPC tumors; assay type: in vivo, BALB/c mice; details: regressing MOPC tumors
Protocol: Terminal deoxynucleotidyltransferase-mediated dUTP-Digoxigenin nick-end-labeling (TUNEL) assay. MOPC tumors that receive either AG-490 or 50% DMSO treatment are used for this assay. Three-μm sections from paraffinized tissues are dewaxed and rehydrated according to standard protocols. After incubation with proteinase K (30 min at 21° C.), the TUNEL reaction mixture (Boehringer Mannheim, Indianapolis, Ind.) is added to rinsed slides, which are incubated in a humidified chamber for […] at 37° C. This is followed by incubating with Converter-AP (50 ml) and substrate solution (50 ml). The reaction is visualized by light microscopy.

N#C/C(=C\c1ccc(O)c(O)c1)C(=O)NCc1ccccc1 [AG490]
bcl-x mRNA expression ([1]; AG490, 24 hours): significant reduction
Bcl-xL protein levels ([1]; AG490, 30 hours): nearly absent
apoptotic tumor cells (TUNEL) [2]: high numbers of apoptotic cells
